From US11318149B2, “Compositions and methods for inhibiting biofilm-forming bacteria” (Board of Trustees of Michigan State University, priority 2018, dated 2022)
≈ marks a conversion by molar mass, not a printed value. Like-named read-outs stand apart in the source and are kept apart here.

Experiments:
Format in all cases: cell-based, Pseudomonas aeruginosa
24-hr old PAO1 biofilms = experiment: Biofilm susceptibility testing (MBEC assay, BacTiter-Glo); conditions: for percent of cells within 24-hr biofilms killed / fold reduction of viable cells versus untreated biofilm / percent of P. aeruginosa cells in the biofilm killed / number of viable cells within the biofilms (BacTiter-Glo), mean: 6-hrs; for fold reduction of viable cells versus untreated biofilm / percent of P. aeruginosa cells in the biofilm killed: oxyclozanide 100 μM, tobramycin 500 μM, gentamicin/streptomycin/tetracycline 100 μM, alone or in combination; for time killing curve result at 2 and 4 hrs, single agent: oxyclozanide or tobramycin alone; for time required to show antimicrobial activity: 24-hr biofilms, melittin 100 μM, tobramycin 400 μM; for EC50: Pseudomonas aeruginosa, read-out: half effective concentration 50 (EC50) of tobramycin; for onset of action: time killing curves, antibiotic alone or with oxyclozanide (100 μM)
Experimental: (§1) To measure antimicrobial susceptibility of biofilms, the MBEC™ assay was used (Innovotech) as previously described. This assay consists of a lid with 96 polystyrene pegs used to grow biofilms. Briefly, an overnight culture was washed and diluted to an OD600 of 0.001 and seeded into a MBEC™ plate. To grow biofilms, the plate was then incubated for 24-hrs at 35° C. in a humidified chamber with agitation at 150 RPM. After 24-hrs, the lid was then transferred to a 96-well plate filled with DPBS and washed for 5-mins to remove non-adherent cells. The lid was transferred to the 96-well treatment plate and incubated for the indicated time points at 35° C. without agitation. After the incubation, the MBEC™ lid was washed and transferred to a black 96-well ViewPlate (PerkinElmer) filled with BacTiter-Glo™ to enumerate cell viability and then luminescence was measured using a EnVison Multilabel Plate Reader (PerkenElmer, Waltham, Mass.). Percent killing was calculated as:
[formula] Dose response curves were performed in the same manner. Crystal Violet Staining
Time killing curves were performed by growing 24-hr old biofilms on MBEC™ plates as previously described. Briefly, 100 μM of oxyclozanide and 500 μM of tobramycin were used to test for synergy at high concentrations of tobramycin, mirroring what is done clinically. The peg-lid was briefly washed in DPBS to remove non-adherent cells and transferred to a treatment plate and incubated at 35° C. for 8-hrs. At 0, 2, 4, 6, and 8-hrs pegs were collected and BacTiter-Glo™ was used to determine cell viability.

[1] = test system: P. aeruginosa planktonically grown cells; experiment: microbe, parasite or virus in culture
Experimental: To measure antimicrobial susceptibility of planktonic cells, MICs were determined using the broth microdilution technique, as described previously. Briefly, microdilutions were made in a 96-well plate in 1% MHB diluted in Dulbecco's Phosphate Buffered Saline with magnesium and calcium (DPBS, Sigma-Aldrich). Cells were combined with the serial dilutions in the 96-well plate at a concentration of ˜[…] CFU/mL in 10% MHB. The plates were then incubated for 24-hrs at 35° C. in a humidified chamber with agitation at 150 RPM. MIC breakpoints were chosen as the minimum concentration in which no turbidity greater than background was measured (absorbance at 595 nm), using a SpectraMax M5 microplate spectrophotometer system (Molecular Devices Sunnyvale, Calif.

P. aeruginosa biofilms = experiment: Crystal violet staining of biofilm biomass (biofilm dispersal); conditions: for effect on biofilm biomass / dispersal (crystal violet): six hour exposure, 50 μM-400 μM, alone and in combination
Experimental: To study biofilm dispersal under static conditions, crystal violet staining was performed as previously described. Briefly, 24-hr old biofilms formed on MBEC™ plates, as described above, were stained with crystal violet after a 6-hr incubation with oxyclozanide and tobramycin.
One possible mechanism by which oxyclozanide enhances tobramycin activity is by inducing biofilm dispersal. To test this, the ability of oxyclozanide and tobramycin to disperse P. aeruginosa biofilms was examined using crystal violet staining of the biofilm biomass after six hour exposure to dilutions of oxyclozanide or tobramycin alone and in combination from 50 μM-400 μM (FIG. 6).

[2] = test system: P. aeruginosa clinical isolates from CF patients grown in biofilms; experiment: Biofilm susceptibility of CF clinical isolates (MBEC, BacTiter-Glo); conditions: 100 μM oxyclozanide; 6-hrs
Experimental: 24-hr old biofilms grown on MBEC plates were treated with oxyclozanide (100 μM), or tobramycin (500 μM), alone and in combination for 6-hrs. The number of viable cells within the biofilms were quantified by BacTiter-Glo™. The assay was performed three times in triplicate. The results represent means plus the SEM. A one-way ANOVA followed by Bonferroni's multiple comparison post-hoc test was used to determine statistical significance compared to tobramycin alone (*, p<0.05, NS, not significant).
as §1, with “The lid was transferred to the 96-well treatment plate and incubated for the indicated time points at 35° C. without agitation.” left out, “as: […]” for “as:”

[3] = test system: P. aeruginosa cells within biofilms; experiment: TO-PRO-3 staining for permeabilization of biofilm cells; conditions: melittin 100 μM, 2 hours
Experimental: 24-hr old biofilms were treated with melittin (100 μM), or tobramycin (400 μM), alone and in combination for 2 hours. […] Percent values indicate the average relative abundance of events within each gate normalized to the total number of events analyzed, excluding artifacts, aggregates and debris. The experiment was performed two separate times in duplicate. The results are percent averages plus the SEM. A one-way ANOVA followed by Bonferroni's multiple comparison post-hoc test was used to determine statistical significance between tobramycin versus melittin, tobramycin versus the combination, and melittin versus the combination(*, p<0.05).

[4] = Pseudomonas aeruginosa, read-out: Minimum Inhibitory Concentrations (MIC), +Melittin
[5] = Pseudomonas aeruginosa, read-out: Minimum Inhibitory Concentrations (MIC), Alone

Row | Molecule | MIC [1, 4] [µM] | MIC [1, 5] [µM] | fold reduction of viable cells versus untreated biofilm (24-hr old PAO1 biofilms) | percent of P. aeruginosa cells in the biofilm killed (24-hr old PAO1 biofilms) [%] | time killing curve result at 2 and 4 hrs, single agent (24-hr old PAO1 biofilms) | effect on biofilm biomass / dispersal (crystal violet) (P. aeruginosa biofilms) | time required to show antimicrobial activity (24-hr old PAO1 biofilms) [h] | Minimum Inhibitory Concentrations (MIC), Alone [1] [µM] | onset of action (24-hr old PAO1 biofilms) [h] | other results
1 | [H]/N=C(/N)N[C@H]1[C@H](O)[C@@H](O)[C@H](O[C@@H]2O[C@@H](C)[C@](O)(C=O)[C@H]2O[C@@H]2O[C@@H](CO)[C@H](O)[C@@H](O)[C@@H]2NC)[C@@H](N/C(N)=N\[H])[C@@H]1O [streptomycin] | 25 to 50 (≈ 14.5 to 29.1 µg/mL) | 25 to 50 (≈ 14.5 to 29.1 µg/mL) | – | – | – | – | – | – | – | delay in killing activity against 24-hr old biofilms (24-hr old PAO1 biofilms; antibiotic alone, 100 μM): did not show a delay
2 | O=C(Nc1cc(Cl)cc(Cl)c1O)c1c(O)c(Cl)cc(Cl)c1Cl [oxyclozanide] | – | – | about 2 fold | 44 | no significant killing | did not impact biofilm biomass | – | – | – | percent of cells within 24-hr biofilms killed (24-hr old PAO1 biofilms; 400 μM of each agent): ~80%; percent of cells within 24-hr biofilms killed (24-hr old PAO1 biofilms; oxyclozanide alone between 25 and 200 μM): 20-40%; effect on the minimum inhibitory concentration of tobramycin, gentamicin, streptomycin, or tetracycline ([1]; planktonically grown cells): no effect; sensitivity of six clinical isolates to treatment alone [2]: modest sensitivity
3 | CC[C@H](C)[C@H](NC(=O)CN)C(=O)NCC(=O)N[C@@H](C)C(=O)N[C@H](C(=O)N[C@@H](CC(C)C)C(=O)N[C@@H](CCCCN)C(=O)N[C@H](C(=O)N[C@@H](CC(C)C)C(=O)N[C@H](C(=O)N[C@H](C(=O)NCC(=O)N[C@@H](CC(C)C)C(=O)N1CCC[C@H]1C(=O)N[C@@H](C)C(=O)N[C@@H](CC(C)C)C(=O)N[C@H](C(=O)N[C@@H](CO)C(=O)N[C@@H](Cc1c[nH]c2ccccc12)C(=O)N[C@H](C(=O)N[C@@H](CCCCN)C(=O)N[C@@H](CCCNC(=N)N)C(=O)N[C@@H](CCCCN)C(=O)N[C@@H](CCCNC(=N)N)C(=O)N[C@@H](CCC(N)=O)C(=O)N[C@@H](CCC(N)=O)C(N)=O)[C@@H](C)CC)[C@@H](C)CC)[C@@H](C)O)[C@@H](C)O)C(C)C)C(C)C [melittin] | – | – | – | – | – | – | 2 | 62.5 to 200 | – | number of viable cells within the biofilms (BacTiter-Glo), mean (24-hr old PAO1 biofilms; Tobramycin 0 μM, Melittin 12.5 μM): 5.18E5; number of viable cells within the biofilms (BacTiter-Glo), mean (24-hr old PAO1 biofilms; Tobramycin 0 μM, Melittin 25 μM): 4.22E5; number of viable cells within the biofilms (BacTiter-Glo), mean (24-hr old PAO1 biofilms; Tobramycin 0 μM, Melittin 50 μM): 2.87E5; number of viable cells within the biofilms (BacTiter-Glo), mean (24-hr old PAO1 biofilms; Tobramycin 0 μM, Melittin 100 μM): 2.51E4; biofilm dispersal (crystal violet) (P. aeruginosa biofilms; 24-hr biofilms treated for 6-hrs): significant biofilm dispersal; permeabilization of cells (TO-PRO-3) [3]: causes permeabilization
4 | NC[C@H]1O[C@H](O[C@H]2[C@H](O)[C@@H](O[C@H]3O[C@H](CO)[C@@H](O)[C@H](N)[C@H]3O)[C@H](N)C[C@@H]2N)[C@H](N)C[C@@H]1O [tobramycin] | 3.12 to 6.25 (≈ 1.46 to 2.92 µg/mL) | 3.12 to 6.25 (≈ 1.46 to 2.92 µg/mL) | about 2 fold | 56 | increase in cell number | significantly reduced biofilm biomass | 6 | – | 6 | EC50 (24-hr old PAO1 biofilms; PAO1, in combination with melittin): 16 µM; EC50 (24-hr old PAO1 biofilms; PAO1, tobramycin alone): 46 µM; number of viable cells within the biofilms (BacTiter-Glo), mean (24-hr old PAO1 biofilms; Tobramycin 50 μM, Melittin 0 μM): 1.82E5; number of viable cells within the biofilms (BacTiter-Glo), mean (24-hr old PAO1 biofilms; Tobramycin 100 μM, Melittin 0 μM): 1.91E5; number of viable cells within the biofilms (BacTiter-Glo), mean (24-hr old PAO1 biofilms; Tobramycin 200 μM, Melittin 0 μM): 2.27E5
5 | gentamicin | – | – | – | – | – | – | – | 6.25 to 12.5 | 4 | MIC ([1]; +Melittin, read-out: Minimum Inhibitory Concentrations (MIC), +Melittin): 12.5 µM
